Reference: the kinase profiling compilation of Christmann-Franck et al. (2016)

Experiments:
Test in all cases: radiometric filter-binding kinase assay
[1] = system: ROCK2 (rat); details: accession and sequence are those of the human protein
[2] = target: DYRK1A (human) (UniProt Q13627)
[3] = target: IKBKE (human) (UniProt Q14164)
[4] = target: MAPK14 (human) (UniProt Q16539)
[5] = target: NTRK1 (human) (UniProt P04629)
[6] = target: RPS6KA3 KD1 KD2 (human) (UniProt P51812)
[7] = target: DYRK3 (human) (UniProt O43781)
[8] = target: EPHB3 (human) (UniProt P54753)
[9] = target: MAPKAPK3 (human) (UniProt Q16644)
[10] = target: CSNK2A1 (human) (UniProt P68400)
[11] = target: MAPK12 (human) (UniProt P53778)
[12] = target: MAP3K7 TAB1 (human) (UniProt Q15750+O43318)
[13] = target: IRAK4 (human) (UniProt Q9NWZ3)
[14] = system: RPS6KB1 (human), P23443 [T412E]
[15] = target: DAPK1 (human) (UniProt P53355)
[16] = target: PIM1 (human) (UniProt P11309)
[17] = target: BRSK2 (human) (UniProt Q8IWQ3)
[18] = target: MAPK11 (human) (UniProt Q15759)
Sequence of MAPK11 (human) (Q15759 whole entry, looked up): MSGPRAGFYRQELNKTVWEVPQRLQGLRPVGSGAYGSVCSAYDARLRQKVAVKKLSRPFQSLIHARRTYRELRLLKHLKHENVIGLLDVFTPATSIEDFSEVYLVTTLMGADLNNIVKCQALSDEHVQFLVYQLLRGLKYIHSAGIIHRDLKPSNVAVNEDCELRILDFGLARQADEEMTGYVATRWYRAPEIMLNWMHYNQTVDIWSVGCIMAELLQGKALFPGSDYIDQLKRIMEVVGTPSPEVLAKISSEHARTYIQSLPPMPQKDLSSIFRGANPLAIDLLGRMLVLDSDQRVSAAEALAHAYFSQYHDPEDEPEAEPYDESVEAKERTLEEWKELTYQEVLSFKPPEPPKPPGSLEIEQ

Sequence of BRSK2 (human) (Q8IWQ3 whole entry, looked up): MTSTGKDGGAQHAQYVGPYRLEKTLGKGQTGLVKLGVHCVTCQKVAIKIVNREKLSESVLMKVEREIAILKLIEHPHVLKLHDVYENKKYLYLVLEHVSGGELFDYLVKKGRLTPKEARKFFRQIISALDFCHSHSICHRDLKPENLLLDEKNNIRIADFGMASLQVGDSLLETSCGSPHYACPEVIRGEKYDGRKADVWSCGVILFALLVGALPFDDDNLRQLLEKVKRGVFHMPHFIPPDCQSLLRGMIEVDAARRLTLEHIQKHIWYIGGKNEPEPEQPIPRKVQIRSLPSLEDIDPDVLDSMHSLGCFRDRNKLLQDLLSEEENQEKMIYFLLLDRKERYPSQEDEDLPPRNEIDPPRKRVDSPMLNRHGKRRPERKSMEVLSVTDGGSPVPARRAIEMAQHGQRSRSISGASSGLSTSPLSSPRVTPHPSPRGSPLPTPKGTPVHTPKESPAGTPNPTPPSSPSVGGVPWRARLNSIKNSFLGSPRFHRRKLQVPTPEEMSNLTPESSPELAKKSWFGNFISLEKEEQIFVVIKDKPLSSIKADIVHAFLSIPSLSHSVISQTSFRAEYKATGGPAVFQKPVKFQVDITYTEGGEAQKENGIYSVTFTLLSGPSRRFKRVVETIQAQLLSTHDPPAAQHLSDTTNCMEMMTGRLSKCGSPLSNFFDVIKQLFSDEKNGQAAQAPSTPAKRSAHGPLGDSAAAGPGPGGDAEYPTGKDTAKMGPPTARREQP
Sequence of MAPK12 (human) (P53778 whole entry, looked up): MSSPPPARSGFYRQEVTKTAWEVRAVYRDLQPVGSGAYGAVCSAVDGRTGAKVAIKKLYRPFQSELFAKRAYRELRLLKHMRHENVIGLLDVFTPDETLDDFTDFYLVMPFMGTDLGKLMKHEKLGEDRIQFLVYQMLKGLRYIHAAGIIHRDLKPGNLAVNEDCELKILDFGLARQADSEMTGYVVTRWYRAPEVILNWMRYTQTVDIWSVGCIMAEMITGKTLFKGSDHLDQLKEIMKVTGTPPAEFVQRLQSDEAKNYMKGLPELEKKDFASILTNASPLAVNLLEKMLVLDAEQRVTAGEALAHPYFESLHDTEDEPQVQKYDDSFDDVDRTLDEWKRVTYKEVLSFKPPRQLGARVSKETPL
Sequence of RPS6KB1 (human), P23443 [T412E] (P23443 whole entry T412E, looked up): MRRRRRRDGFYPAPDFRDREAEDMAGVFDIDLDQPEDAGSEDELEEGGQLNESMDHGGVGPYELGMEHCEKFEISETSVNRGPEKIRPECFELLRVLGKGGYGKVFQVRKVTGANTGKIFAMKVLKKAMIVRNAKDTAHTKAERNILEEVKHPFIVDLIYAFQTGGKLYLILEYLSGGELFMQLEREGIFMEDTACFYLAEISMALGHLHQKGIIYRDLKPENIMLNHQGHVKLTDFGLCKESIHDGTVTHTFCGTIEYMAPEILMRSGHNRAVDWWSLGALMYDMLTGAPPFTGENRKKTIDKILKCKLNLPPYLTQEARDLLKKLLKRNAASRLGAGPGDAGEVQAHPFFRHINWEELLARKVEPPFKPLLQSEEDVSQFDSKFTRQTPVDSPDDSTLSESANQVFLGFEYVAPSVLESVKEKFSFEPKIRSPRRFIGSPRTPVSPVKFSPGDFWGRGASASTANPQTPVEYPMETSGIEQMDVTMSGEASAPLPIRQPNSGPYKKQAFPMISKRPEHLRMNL
Sequence of IKBKE (human) (Q14164 whole entry, looked up): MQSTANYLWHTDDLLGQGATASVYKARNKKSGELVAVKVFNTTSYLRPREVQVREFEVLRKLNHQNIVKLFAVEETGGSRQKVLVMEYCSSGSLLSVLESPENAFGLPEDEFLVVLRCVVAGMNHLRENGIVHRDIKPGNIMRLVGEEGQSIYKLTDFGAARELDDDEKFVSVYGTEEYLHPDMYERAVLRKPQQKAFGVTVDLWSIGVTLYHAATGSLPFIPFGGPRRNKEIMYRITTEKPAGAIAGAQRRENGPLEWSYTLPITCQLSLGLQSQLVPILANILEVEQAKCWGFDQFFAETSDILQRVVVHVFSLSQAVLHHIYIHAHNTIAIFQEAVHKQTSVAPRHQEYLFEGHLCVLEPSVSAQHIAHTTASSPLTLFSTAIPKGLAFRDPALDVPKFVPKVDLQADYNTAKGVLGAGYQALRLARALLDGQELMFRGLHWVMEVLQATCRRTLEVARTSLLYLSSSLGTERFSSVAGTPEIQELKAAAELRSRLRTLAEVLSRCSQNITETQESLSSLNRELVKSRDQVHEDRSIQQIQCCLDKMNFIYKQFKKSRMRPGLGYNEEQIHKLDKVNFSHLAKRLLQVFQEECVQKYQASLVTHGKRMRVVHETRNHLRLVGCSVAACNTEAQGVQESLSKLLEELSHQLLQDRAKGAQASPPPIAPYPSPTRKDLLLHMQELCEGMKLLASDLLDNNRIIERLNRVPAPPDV
Sequence of EPHB3 (human) (P54753 whole entry, looked up): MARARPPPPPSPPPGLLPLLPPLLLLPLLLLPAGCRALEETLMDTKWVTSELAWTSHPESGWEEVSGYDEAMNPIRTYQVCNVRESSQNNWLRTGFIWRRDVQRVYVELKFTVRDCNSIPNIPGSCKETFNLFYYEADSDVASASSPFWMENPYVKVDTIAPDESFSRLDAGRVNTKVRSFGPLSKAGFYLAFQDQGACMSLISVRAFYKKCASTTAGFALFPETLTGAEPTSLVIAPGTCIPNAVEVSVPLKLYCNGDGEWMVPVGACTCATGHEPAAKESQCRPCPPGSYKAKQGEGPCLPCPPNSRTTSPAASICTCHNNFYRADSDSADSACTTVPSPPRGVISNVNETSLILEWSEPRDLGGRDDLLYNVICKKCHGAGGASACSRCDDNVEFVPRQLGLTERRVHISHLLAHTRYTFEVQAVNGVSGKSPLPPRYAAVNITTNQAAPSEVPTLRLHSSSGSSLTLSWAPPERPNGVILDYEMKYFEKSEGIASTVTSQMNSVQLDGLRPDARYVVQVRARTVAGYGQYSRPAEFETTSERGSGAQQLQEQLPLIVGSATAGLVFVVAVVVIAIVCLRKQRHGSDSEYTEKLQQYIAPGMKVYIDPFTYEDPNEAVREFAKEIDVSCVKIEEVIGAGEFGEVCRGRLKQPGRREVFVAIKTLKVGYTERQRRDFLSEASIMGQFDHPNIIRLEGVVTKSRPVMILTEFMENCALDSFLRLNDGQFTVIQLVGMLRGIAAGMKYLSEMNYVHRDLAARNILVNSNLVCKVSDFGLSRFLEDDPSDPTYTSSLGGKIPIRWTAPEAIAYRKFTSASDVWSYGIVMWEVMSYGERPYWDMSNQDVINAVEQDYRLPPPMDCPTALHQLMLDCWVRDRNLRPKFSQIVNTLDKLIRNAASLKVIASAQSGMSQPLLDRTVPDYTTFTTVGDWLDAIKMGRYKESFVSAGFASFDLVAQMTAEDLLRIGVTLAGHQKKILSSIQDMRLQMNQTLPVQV
Sequence of MAPK14 (human) (Q16539 whole entry, looked up): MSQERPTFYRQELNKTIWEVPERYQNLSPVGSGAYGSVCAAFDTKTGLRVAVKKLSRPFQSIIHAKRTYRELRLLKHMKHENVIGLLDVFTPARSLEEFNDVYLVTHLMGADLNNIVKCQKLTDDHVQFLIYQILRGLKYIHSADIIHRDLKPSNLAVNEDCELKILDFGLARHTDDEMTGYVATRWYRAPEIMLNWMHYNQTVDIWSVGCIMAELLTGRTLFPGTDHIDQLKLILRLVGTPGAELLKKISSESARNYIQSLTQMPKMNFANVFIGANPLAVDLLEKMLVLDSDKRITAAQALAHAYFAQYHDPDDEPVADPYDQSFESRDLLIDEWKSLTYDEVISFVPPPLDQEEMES
Sequence of DYRK3 (human) (O43781 whole entry, looked up): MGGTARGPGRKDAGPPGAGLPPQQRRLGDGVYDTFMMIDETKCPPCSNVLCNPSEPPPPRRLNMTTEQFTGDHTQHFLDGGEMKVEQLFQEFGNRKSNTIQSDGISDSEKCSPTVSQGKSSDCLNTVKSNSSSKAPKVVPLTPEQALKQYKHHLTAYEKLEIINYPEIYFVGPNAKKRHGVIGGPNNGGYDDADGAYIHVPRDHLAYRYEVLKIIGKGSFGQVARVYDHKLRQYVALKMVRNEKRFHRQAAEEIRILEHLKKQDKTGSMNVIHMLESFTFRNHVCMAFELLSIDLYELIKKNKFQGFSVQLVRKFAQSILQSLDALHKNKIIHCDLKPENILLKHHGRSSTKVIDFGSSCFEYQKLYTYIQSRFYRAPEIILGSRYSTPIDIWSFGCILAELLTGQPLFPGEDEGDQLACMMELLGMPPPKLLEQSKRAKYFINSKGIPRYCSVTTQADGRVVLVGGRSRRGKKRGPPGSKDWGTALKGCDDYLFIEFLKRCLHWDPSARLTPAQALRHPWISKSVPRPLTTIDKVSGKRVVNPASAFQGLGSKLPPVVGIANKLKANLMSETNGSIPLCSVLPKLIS
Sequence of PIM1 (human) (P11309 whole entry, looked up): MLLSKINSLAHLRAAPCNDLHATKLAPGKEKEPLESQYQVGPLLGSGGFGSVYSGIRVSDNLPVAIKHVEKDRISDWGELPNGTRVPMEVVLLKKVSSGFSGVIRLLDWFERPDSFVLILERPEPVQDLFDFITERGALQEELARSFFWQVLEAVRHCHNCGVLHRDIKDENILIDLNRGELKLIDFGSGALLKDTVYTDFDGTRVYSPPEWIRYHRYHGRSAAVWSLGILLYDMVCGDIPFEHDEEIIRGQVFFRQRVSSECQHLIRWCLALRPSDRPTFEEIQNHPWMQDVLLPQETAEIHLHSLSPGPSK

O=C(Nc1ccccc1-c1cn2c(CN3CCNCC3)csc2n1)c1cnc2ccccc2n1
residual activity ([1]; compound 0.1 µM): 100% | residual activity ([1]; compound 1.0 µM): 89% | residual activity ([1]; compound 10.0 µM): 79% | residual activity ([2]; compound 0.1 µM): 101% | residual activity ([2]; compound 1.0 µM): 94% | residual activity ([2]; compound 10.0 µM): 58% | residual activity ([3]; compound 0.1 µM): 90% | residual activity ([3]; compound 1.0 µM): 102% | residual activity ([3]; compound 10.0 µM): 83% | residual activity ([4]; compound 0.1 µM): 87% | residual activity ([4]; compound 1.0 µM): 91% | residual activity ([4]; compound 10.0 µM): 99% | residual activity ([5]; compound 1.0 µM): 47% | residual activity ([5]; compound 10.0 µM): 30% | residual activity ([6]; compound 1.0 µM): 84% | residual activity ([6]; compound 10.0 µM): 46% | residual activity ([7]; compound 0.1 µM): 82% | residual activity ([7]; compound 1.0 µM): 91% | residual activity ([7]; compound 10.0 µM): 64% | residual activity ([8]; compound 0.1 µM): 99% | residual activity ([8]; compound 1.0 µM): 99% | residual activity ([8]; compound 10.0 µM): 90% | residual activity ([9]; compound 1.0 µM): 90% | residual activity ([9]; compound 10.0 µM): 100% | residual activity ([10]; compound 0.1 µM): 90% | residual activity ([10]; compound 1.0 µM): 102% | residual activity ([10]; compound 10.0 µM): 77% | residual activity ([11]; compound 0.1 µM): 84% | residual activity ([11]; compound 1.0 µM): 95% | residual activity ([11]; compound 10.0 µM): 92% | residual activity ([12]; compound 1.0 µM): 91% | residual activity ([12]; compound 10.0 µM): 86% | residual activity ([13]; compound 1.0 µM): 63% | residual activity ([13]; compound 10.0 µM): 24% | residual activity ([14]; compound 0.1 µM): 86% | residual activity ([14]; compound 1.0 µM): 111% | residual activity ([14]; compound 10.0 µM): 61% | residual activity ([15]; compound 1.0 µM): 68% | residual activity ([15]; compound 10.0 µM): 25% | residual activity ([16]; compound 0.1 µM): 40% | residual activity ([16]; compound 1.0 µM): 18% | residual activity ([16]; compound 10.0 µM): 10% | residual activity ([17]; compound 0.1 µM): 86% | residual activity ([17]; compound 1.0 µM): 97% | residual activity ([17]; compound 10.0 µM): 90% | residual activity ([18]; compound 0.1 µM): 102% | residual activity ([18]; compound 1.0 µM): 89% | residual activity ([18]; compound 10.0 µM): 90%
